Results: patent US20150258129A1, “Method for Increasing the Activity of Lysosomal Enzymes” (Mount Sinai School of Medicine of New York University, priority 1998, published 2015)
Residue numbers refer to the chain shown, from its start.

What was measured:
[1] = system: globotriaosylceramide metabolism; assay: Intracellular globotriaosylceramide metabolism with inhibitor in the medium; type: cell-based; conditions: 20 μM in the medium
[2] = biological target: T1, mutant α-Gal A (R301Q) (Homo sapiens, UniProt P06280, R301Q); set-up: endogenous in cells; host or cells: Epstein-Barr virus-transformed lymphoblasts from a Fabry patient (R301Q); conditions: R301Q or Q279E mutations; cited from earlier work
T1 sequence (P06280 32-429 R301Q): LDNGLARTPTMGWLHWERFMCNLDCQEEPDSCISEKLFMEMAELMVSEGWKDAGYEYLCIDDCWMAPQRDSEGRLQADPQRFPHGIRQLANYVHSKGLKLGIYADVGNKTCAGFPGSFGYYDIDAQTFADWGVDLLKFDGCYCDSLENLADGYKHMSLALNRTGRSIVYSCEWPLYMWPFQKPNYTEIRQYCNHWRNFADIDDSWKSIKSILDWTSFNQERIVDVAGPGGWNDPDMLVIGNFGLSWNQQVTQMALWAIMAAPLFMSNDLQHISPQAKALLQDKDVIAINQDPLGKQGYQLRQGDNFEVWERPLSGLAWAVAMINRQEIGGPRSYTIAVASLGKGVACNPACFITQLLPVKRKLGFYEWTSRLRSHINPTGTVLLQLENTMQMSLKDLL

[3] = biological target: coffee bean α-galactosidase (Coffea arabica, UniProt Q42656); conditions: cited from earlier work
coffee bean α-galactosidase, sequence (Q42656 16-378): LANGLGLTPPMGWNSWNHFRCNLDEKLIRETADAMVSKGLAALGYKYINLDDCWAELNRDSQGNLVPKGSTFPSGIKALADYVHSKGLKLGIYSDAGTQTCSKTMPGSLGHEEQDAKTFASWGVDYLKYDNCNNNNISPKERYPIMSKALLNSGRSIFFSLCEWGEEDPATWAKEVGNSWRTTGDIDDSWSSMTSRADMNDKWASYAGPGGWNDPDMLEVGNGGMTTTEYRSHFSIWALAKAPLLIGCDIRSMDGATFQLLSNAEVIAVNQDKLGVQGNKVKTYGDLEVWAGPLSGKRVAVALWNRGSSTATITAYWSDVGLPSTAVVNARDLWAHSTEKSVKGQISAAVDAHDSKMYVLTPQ

[4] = biological target: T2, human lysosomal α-Gal A (Homo sapiens, UniProt P06280); assay: In vitro inhibition of α-Gal A (recombinant, expressed in Sf-9 insect cells); type: biochemical
T2 construct: made in house; host or cells: Sf-9 insect cells, recombinant baculovirus
T2 sequence (P06280 32-429): T1 sequence (P06280 32-429 R301Q) with Q270R

[5] = biological target: T3, mutant (R301Q) α-Gal A (Homo sapiens, UniProt P06280, R301Q); conditions: oral administration, mice overexpressing mutant (R301Q) α-Gal A; cited from earlier work
T3 construct: host or cells: transgenic mice (organs)
T3 sequence (P06280 32-429 R301Q): T1 sequence (P06280 32-429 R301Q)

[6] = biological target: T1, mutant α-Gal A (R301Q); conditions: neutral pH; cited from earlier work
[7] = biological target: T1, mutant α-Gal A (R301Q); assay: Intracellular enhancement of α-Gal A activity in Fabry lymphoblasts; type: cell-based; set-up: endogenous in cells; host or cells: Epstein-Barr virus-transformed lymphoblasts from a Fabry patient (R301Q)
Procedure: FIG. 4B depicts results in which each inhibitor was added to the culture medium of R301Q lymphoblasts at a concentration of 100 μM. Cells were subsequently incubated for 4 days. After being washed twice with phosphate-buffered saline, the intracellular enzyme activity was determined with 4-MU-α-Gal as the substrate.
R301Q lymphoblasts were cultured with DGJ (4) ([…]), α-allo-HNJ (9) (▪), α-galacto-HNJ (10) (▴), or β-1-C-butyl-DGJ (16) (♦) at 1-1000 μM for 4 days before being collected for enzyme assay.
In FIG. 6B, R301Q lymphoblasts were cultured with calystegine B2 (18) and the results are shown therein. In FIG. 6C, R301Q lymphoblasts were cultured with N-methyl calystegine A3 (19) and the results are shown therein. In FIG. 6D R301Q lymphoblasts were cultured with N-methyl calystegine B2 (20) at 100-1000 μM for 4 days before being collected for enzyme assay and the results are shown therein.
(§1) The Epstein-Barr virus-transformed lymphoblast lines from a normal adult and a Fabry patient with R301Q mutation in α-Gal A (38) were cultured in RPMI-1640 medium (Nissui Pharmaceutical Co., Tokyo, Japan) supplemented with 10% fetal calf serum (FCS) at 37° C. under 5% CO2. Human fibroblasts from Gaucher and GM1-gangliosidosis patients were cultured in McCoy 5A medium supplemented with 10% FCS at 37° C. under 5% CO2.
Cells were cultured in the presence or absence of inhibitor for 4 days. After being washed twice with phosphate-buffered saline (PBS), the cells were harvested and homogenized in 200 μl of H2O, and 10 μl of the supernatant obtained by centrifugation at 10,000 g was incubated at 37° C. with 50 μl of the substrate solution composed by 6 mM 4-methylumbelliferyl α-D-galactoside (4-MU-α-Gal) and 90 mM N-acetylgalactosamine in 0.1 M citrate buffer (pH 4.5) for enzyme assay. One unit of intracellular enzyme activity was defined as one nmol of 4-methylumbelliferone released per hour at 37° C.

[8] = system: lysosomal acid β-galactosidase (β-Gal); assay: Intracellular enhancement of β-Gal activity in GM1-gangliosidosis fibroblasts; type: cell-based, human
Procedure: In FIG. 7A, GM1-gangliosidosis fibroblasts were cultured with DGJ (4) at 500 μM for 5 days before being collected for enzyme assay. In FIG. 7B, GM1-gangliosidosis fibroblasts were cultured with 4-epi-isofagomine (21) at 50 μM for 5 days before being collected for enzyme assay. Strains BGF-1 and BGF-6 were diagnosed as infantile type, and all others were juvenile or adult types.
as §1
Cells were cultured in the presence or absence of inhibitor for 5 days. After being washed twice with PBS, the cells were harvested and homogenized in 200 μl of H2O, and 10 μl of the supernatant obtained by centrifugation at 10,000 g was incubated at 37° C. with 50 μl of the substrate solution of 1 mM 4-methylumbelliferyl β-D-galactoside (4-MU-β-Gal) in 0.1 M citrate buffer (pH 4.5) for enzyme assay. One unit of intracellular enzyme activity was defined as one nmol of 4-methylumbelliferone released per hour at 37° C.

[9] = biological target: T4, glucocerebrosidase (β-Glu), N370S/N370S (Homo sapiens, UniProt P04062, N409S); assay: Intracellular enhancement of β-Glu activity in Gaucher fibroblasts (N370S/N370S); type: cell-based
T4 construct: endogenous in cells; host or cells: human Gaucher patient fibroblasts, genotype N370S/N370S
T4 sequence (P04062 40-536 N409S): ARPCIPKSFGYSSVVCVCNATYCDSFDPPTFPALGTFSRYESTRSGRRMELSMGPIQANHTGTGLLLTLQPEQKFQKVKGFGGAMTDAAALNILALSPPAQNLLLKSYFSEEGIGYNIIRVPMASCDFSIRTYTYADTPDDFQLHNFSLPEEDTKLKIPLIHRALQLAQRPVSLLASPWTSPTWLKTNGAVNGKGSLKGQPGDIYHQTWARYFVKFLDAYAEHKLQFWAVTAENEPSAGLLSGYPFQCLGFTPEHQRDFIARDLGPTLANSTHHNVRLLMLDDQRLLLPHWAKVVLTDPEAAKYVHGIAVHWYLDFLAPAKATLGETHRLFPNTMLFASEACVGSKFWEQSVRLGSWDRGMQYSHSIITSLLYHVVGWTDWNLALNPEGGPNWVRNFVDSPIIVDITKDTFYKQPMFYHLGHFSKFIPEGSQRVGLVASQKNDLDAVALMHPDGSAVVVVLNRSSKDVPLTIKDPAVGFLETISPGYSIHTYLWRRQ

[10] = system: almond β-galactosidase; conditions: cited from earlier work

SMILES | intracellular inhibition of globotriaosylceramide metabolism [1] | mutant enzyme activity in lymphoblasts from Fabry patients [2] | inhibition of coffee bean α-galactosidase (in words) [3] | inhibition mode toward α-Gal A (Lineweaver-Burk plots) [4] | enzyme activity in major organs of transgenic mice [5] | in vitro stability of mutant α-Gal A (R301Q) [6] | α-Gal A enzyme activity in R301Q lymphoblasts reached, % of normal ([7]; 100 μM, 4 days) | increase of α-Gal A enzyme activity in R301Q lymphoblasts ([7]; inhibitor at 100 μM, 4 days) | α-Gal A activity in R301Q lymphoblasts with increasing inhibitor concentration ([7]; range 1-100 μM, FIG. 5) | increase of residual β-Gal activity in BGF-7 fibroblasts ([8]; 500 μM, 5 days, FIG. 7A) [fold] | β-Gal enhancement effect in fibroblasts of infant type disease (BGF-1 and BGF-6) ([8]; DGJ 500 μM, 4-epi-isofagomine 50 μM, 5 days) | intracellular β-Gal activity in GM1-gangliosidosis fibroblasts (summary) ([8]; concentration ranges of 50-500 μM) | increase of intracellular β-Glu activity in Gaucher fibroblasts ([9]; N370S/N370S, 1-50 μM in the culture medium, FIG. 8A) | residual β-Glu activity in Gaucher cells, time course ([9]; N370S/N370S, day 1 or 2, FIG. 8B) | increase of β-Glu activity in Gaucher cells, time course ([9]; N370S/N370S, day 5, FIG. 8B) | β-Glu enhancement effect at high concentration ([9]; N370S/N370S, higher than 50 μM) | intracellular β-Glu activity in Gaucher fibroblasts (summary) ([9]; concentration ranges of 0.05-100 μM) | inhibition of almond β-galactosidase (in words) [10]
OC[C@H]1NC[C@H](O)[C@@H](O)[C@H]1O [compound 4, 1-Deoxygalactonojirimycin] | did not cause intracellular inhibition | enhanced the mutant enzyme activity | extremely powerful inhibitor | competitive inhibitors | substantially elevated the enzyme activity | effectively increased in vitro stability | 49 % of normal | about 14 fold | elevated with increasing inhibitor concentration | 27 | not efficient | effectively enhance |  |  |  |  |  | 
OC[C@H]1CNC[C@@H](O)[C@@H]1O [compound 33, isofagomine] |  |  |  |  |  |  |  |  |  |  |  |  | 55-80% | did not change | more than 80% | nullified the enhancement effect | effectively enhance | potent inhibitor
